Results on 17 compounds are retold here after US4435396A, “Antiulcer 2-guanidino-4-(2-substituted-amino-4-imidazolyl)thiazoles and process therefor” (Pfizer Inc., priority 1982, dated 1984).

The subject of experiment [1] is ethanol-induced ulceration in rats. As to the kind of experiment: Inhibition of ethanol-induced ulceration in rats. Particulars: oral dose of 30 mg/kg; for inhibition in vivo at 30 mg/kg: Rattus norvegicus, po. The format is in vivo, rat. On the procedure:
The antiulcer activity of the products of this invention was also determined by an ethanol-induced rat ulcer assay. […] One hour after the ethanol challenge the animals (8/group) are killed and the stomachs examined for the presence of lesions. After sacrifice the abdomen is opened and a locking hemostat placed at the pylorus. Six ml of a 4% solution of formaldehyde was injected into the stomach with a gastric feeding tube and a second locking hemostat was used to seal the esophagus. The stomach was removed, opened along the greater curvature and examined for ulceration.
The scoring system used to quantitate the ethanol-induced lesions is given below.
For each group of animals an ulcer index is calculated as follows:
Ulceration Index=(the sum of the scores of the group)×(the sum of the number of ulcers in the group)×(the fraction of the group having any incidence of ulceration).
The percentage inhibition of ulcers is calculated as follows:
% Inhibition=100×[(ulcer index controls)-(ulcer index
drug-treated)].div.(ulcer index controls).

The next experiment concerns Heidenhain pouch dogs. As to the kind of experiment: Gastric acid antisecretory activity in pentagastrin-stimulated conscious Heidenhain pouch dogs. The experiment is classed as in vivo, dog. The settings on record: intravenously. How it is done:
The gastric acid antisecretory activity of compounds of the present invention was determined in overnight fasted, conscious Heidenhain pouch dogs. Pentagastrin (Pentavolon-Ayerst) was used to stimulate acid output by continuous infusion into a superficial leg vein at doses earlier determined to stimulate near maximal acid output from the gastric pouch. Gastric juice was collected at 30 minute intervals following the start of a pentagastrin infusion and measured to the nearest 0.1 ml. Ten collections were taken for each dog during an experiment. Acid concentration was determined by tritrating 1.0 ml of gastric juice to pH 7.4 with 0.1 N sodium hydroxide using an Autoburette and a glass electrode pH meter (Radiometer).
Drug or vehicle was given intravenously 90 minutes following the start of the pentagastrin infusion, at a dose of 1 mg/kg or less. Gastric acid antisecretory effects were calculated by comparing the lowest acid output after drug administration with the mean acid output immediately before drug.

In the next experiment the target is T1, H2 -receptor (Cavia porcellus, UniProt P47747).
T1 construct: the heart removed and the right atria dissected free; from tissue; host or cells: guinea pig right atria
As to the kind of experiment: Histamine-H2 antagonist activity in isolated guinea pig right atria. The experiment is classed as cell-based. The settings on record: histamine dose-response, read-out: pA2 (apparent dissociation constant of the H2-receptor antagonist) (converted). How it is done:
The histamine-H2 antagonist activity of compounds of the present invention was determined by the following procedure:
Guinea pigs are killed rapidly with a blow to the head, the heart removed and the right atria dissected free. Atria are suspended, isometrically, in a temperature-controlled (32°±2°) tissue bath (10 ml) containing oxygenated (95% O2; 5% CO2) Krebs-Henseleit buffer (pH 7.4) and are allowed to stabilize approximately one hour during which time the tissue bath is flushed several times. Individual atrial contractions are followed with a force-displacement transducer connected to a cardiotachometer and Grass polygraph recorder. After obtaining a dose-response curve to histamine, the bath containing each atrium is flushed several times with fresh buffer and the atria reequilibrated to basal rates. Following the return to basal rate, test compounds are addded at selected final concentrations and the histamine dose-response curve is again determined in the presence of antagonist. Results are expressed as dose-ratios, the ratio of histamine concentrations required to produce one-half of maximal stimulation in the presence and absence of antagonist, and the apparent dissociation constant of the H2 -receptor antagonist pA2, is determined.

[2] abbreviates: dose of 1 mg/kg, pentagastrin-stimulated Heidenhain pouch dogs.

Values joined by “and” are separate entries in the source; they are usually repeats but may differ in a detail not shown here. Equal values may be shown once.

T1 sequence (P47747 whole entry): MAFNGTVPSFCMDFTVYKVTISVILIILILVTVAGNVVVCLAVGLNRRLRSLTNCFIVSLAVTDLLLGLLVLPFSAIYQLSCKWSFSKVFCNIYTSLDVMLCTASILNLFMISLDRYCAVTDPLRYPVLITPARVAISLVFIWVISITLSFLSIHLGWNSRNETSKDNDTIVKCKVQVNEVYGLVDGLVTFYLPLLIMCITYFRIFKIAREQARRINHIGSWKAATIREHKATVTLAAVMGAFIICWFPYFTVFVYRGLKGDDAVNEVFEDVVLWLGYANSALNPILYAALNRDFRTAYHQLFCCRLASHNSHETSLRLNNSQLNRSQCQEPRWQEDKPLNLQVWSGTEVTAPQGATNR

On to `NC(N)=Nc1nc(-c2c[nH]c(NCc3ccccc3)n2)cs1` [product q], for which, in experiment [1], the inhibition in vivo at 30 mg/kg is 7 to 13%.
For `CCN(C)c1nc(-c2csc(N=C(N)N)n2)c[nH]1` [product y], the inhibition in vivo at 30 mg/kg in experiment [1] was no less than 19%.
For the compound `NC(N)=Nc1nc(-c2c[nH]c(NCCc3ccc(Cl)cc3)n2)cs1` [product w], the “inhibition of gastric secretion” value with Heidenhain pouch dogs (the same (1 mg/kg) or a lower dose, Heidenhain pouch dogs) is “at least 97%”. At H2 -receptor, the Kb was no more than 100 nM.
In turn, `CC(C)CCNc1nc(-c2csc(N=C(N)N)n2)c[nH]1` [product m] registered an inhibition in vivo at 30 mg/kg in experiment [1] of no less than 19%.
Consider `CN(C)c1nc(-c2csc(N=C(N)N)n2)c[nH]1` [product x], for which the “inhibition of ethanol-induced ulceration” value in experiment [1] is on record as “no significant activity”.
`NC(N)=Nc1nc(-c2c[nH]c(NCCCCc3ccccc3)n2)cs1` [product t]: the Kb at H2 -receptor is no more than 100 nM. The inhibition in vivo at 30 mg/kg in experiment [1] fell in the range of 86 to 100%.
As to `NC(N)=Nc1nc(-c2c[nH]c(N3CCCC3)n2)cs1` [product bb], the inhibition in vivo at 30 mg/kg in experiment [1] was no less than 19%.
For `NC(N)=Nc1nc(-c2c[nH]c(NC3CCCC3)n2)cs1` [product o], the Kb at H2 -receptor is no more than 1260 nM. For the same compound, the “inhibition of ethanol-induced ulceration” value in experiment [1] is “no significant activity”.
The compound `NC(N)=Nc1nc(-c2c[nH]c(NCCc3ccncc3)n2)cs1` [product u] yielded an inhibition in vivo at 30 mg/kg in experiment [1] of 21 to 51%.
In turn, `CCN(CC)c1nc(-c2csc(N=C(N)N)n2)c[nH]1` [product z] showed an inhibition in vivo at 30 mg/kg in experiment [1] of no less than 19%.
On to `NC(N)=Nc1nc(-c2c[nH]c(NCCCc3ccccc3)n2)cs1` [product s], for which the Kb on H2 -receptor was no more than 100 nM. Also, in experiment [1], the inhibition in vivo at 30 mg/kg lay in the range of 86 to 100%.
In experiment [1], `NC(N)=Nc1nc(-c2c[nH]c(NC3CCCCC3)n2)cs1` [product p] registered an inhibition in vivo at 30 mg/kg of 7 to 13%.
As for `NC(N)=Nc1nc(-c2c[nH]c(N3CCOCC3)n2)cs1` [product aa], in experiment [1], the “inhibition of ethanol-induced ulceration” value is “no significant activity”.
On the same count and under the same terms, next, `NC(N)=Nc1nc(-c2c[nH]c(NCCc3ccccn3)n2)cs1` [product v]: “no significant activity”.
Take `NC(N)=Nc1nc(-c2c[nH]c(N3CCCCC3)n2)cs1` [product cc]: the “inhibition of gastric secretion” value was 72% in the experiment with Heidenhain pouch dogs (0.1 mg/kg, Heidenhain pouch dogs) and “at least 21%” in the experiment with Heidenhain pouch dogs (setting [2]). The inhibition in vivo at 30 mg/kg in experiment [1] is no less than 19%.
`NC(N)=Nc1nc(-c2c[nH]c(NCCc3ccccc3)n2)cs1` [product r]: in the experiment with Heidenhain pouch dogs (setting [2]), the “inhibition of gastric secretion” value was “at least 21%”.
With `NC(N)=Nc1nc(-c2c[nH]c(NC3CC3)n2)cs1` [product n], the “inhibition of gastric secretion” value in the experiment with Heidenhain pouch dogs (setting [2]) is “at least 21%”; with Heidenhain pouch dogs (dose of 3 microg/kg, Heidenhain pouch dogs), 42%. Moreover, the Kb on H2 -receptor is ≤ 1260 nM and ≤ 100 nM and 1.58 nM. Besides, the inhibition in vivo at 30 mg/kg in experiment [1] is 7 to 13%.
